Assay [1] in a line: Synergistic antiproliferative activity against human melphalan-resistant RPMI-8226 cells assessed as reduction in cell viability at ED75 incubated for 72 hrs in presence of bortezomib by MTS assay. The assay is classed as functional, Melphalan-resistant RPMI-8226 cell.
Assay [2] relates to Bortezomib-resistant ANBL6. Briefly: Synergistic antiproliferative activity against human bortezomib-resistant ANBL6 cells assessed as reduction in cell viability at ED75 incubated for 72 hrs in presence of bortezomib by MTS assay. The assay is classed as functional.
The subject of another assay is RPMI-8226. Briefly: Synergistic antiproliferative activity against wild-type human RPMI-8226 cells assessed as reduction in cell viability at ED90 incubated for 72 hrs in presence of bortezomib by MTS assay. The format is functional.
The nature of assay [3]: Synergistic antiproliferative activity against human melphalan-resistant RPMI-8226 cells assessed as reduction in cell viability at ED90 incubated for 72 hrs in presence of bortezomib by MTS assay. The format is functional, Melphalan-resistant RPMI-8226 cell. For orientation: Formazan colour is commonly taken as a measure of viable cells.
For assay [4], the system named is ANBL-6. Briefly: Induction of apoptosis in wild-type human ANBL-6 cells assessed as viable at 1600 nM incubated for 72 hrs by annexin V and 7-AAD staining by flow cytometry analysis (Rvb=59 %). The format is functional.
In assay [5] the test system is ANBL-6. The assay is described as follows: Induction of apoptosis in wild-type human ANBL-6 cells assessed as late apoptosis at 1600 nM incubated for 72 hrs by annexin V and 7-AAD staining by flow cytometry analysis (Rvb=26 %). The format is functional. Background: A flow cytometer gives signals particle by particle.
The subject of assay [6] is ANBL-6. The assay is described as follows: Synergistic apoptosis activity in wild-type human ANBL-6 cells assessed as early apoptosis at 1600 nM incubated for 72 hrs in the presence of BTZ by annexin V and 7-AAD staining by flow cytometry analysis (Rvb=14 %). The assay is classed as functional.
Assay [7] concerns Bortezomib-resistant ANBL6. The assay is described as follows: Induction of apoptosis in human bortezomib-resistant ANBL6 cells assessed as late apoptosis at 1600 nM incubated for 72 hrs by annexin V and 7-AAD staining by flow cytometry analysis (Rvb=5 %). The format is functional.
Assay [8] relates to Bortezomib-resistant ANBL6. Briefly: Induction of apoptosis in human bortezomib-resistant ANBL6 cells assessed as early apoptosis at 160 nM incubated for 72 hrs by annexin V and 7-AAD staining by flow cytometry analysis (Rvb=15 %). The assay is classed as functional.
In assay [9] the test system is ANBL-6. Briefly: Synergistic apoptosis activity in wild-type human ANBL-6 cells assessed as early apoptosis at 1600 nM incubated for 72 hrs in the presence of BTZ by annexin V and 7-AAD staining by flow cytometry analysis. The assay is classed as functional.
Assay [10] has as its system Bortezomib-resistant ANBL6. The assay is described as follows: Synergistic apoptosis activity in human bortezomib-resistant ANBL6 cells assessed as early apoptosis at 1600 nM incubated for 48 hrs in the presence of BTZ by annexin V and 7-AAD staining by flow cytometry analysis. The assay is classed as functional.
Assay [11] has as its target Bromodomain and extra-terminal motif (BET) (Homo sapiens) (UniProt P25440+O60885+Q58F21+Q15059). The following applies: Bortezomib-resistant ANBL6 cell, dose lower 40.0 nM, dose upper […].

The source made the active and inactive calls. No cut-off for these calls is given here.

Turning to `Cc1sc2c(c1C)C(c1ccc(Cl)cc1)=N[C@@H](CC(N)=O)c1nnc(C)n1-2`, the CI is 0.693 in assay [1]; 0.494 in assay [2]; 1.041 with RPMI-8226; 0.569 in assay [3]; 0.44 with ANBL-6 [9]; 0.77 in assay [10]. The Activity is listed as 31% in the assay on ANBL-6 [4]; 31% in the assay with ANBL-6 [5]; 84% with ANBL-6 [6]; 16% in assay [7]; 18% in [8]. Moreover, the inhibition result in assay [11] is “Active”.

For the origin of these results see ChEMBL document CHEMBL5715952 (Oncotarget, 2015).
